Experimental data as given in PubChem BioAssay AID330 (DTP/NCI, 2004).
Toxic doses and inconclusive results are not listed.

Tested on: P388 leukemia ip, CD2F1 mice, survival T/C
Assay: NCI In Vivo Anticancer Drug Screen. Data for tumor model P388 Leukemia (intraperitoneal) in CD2F1 (CDF1) mice
Settings: endpoint: median survival time, higher = longer survival
Procedure, shortened: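 Mice carrying the transplanted tumor received test compound or vehicle. Survival was recorded in each group, and the value is the treated-group measurement divided by that of the vehicle-treated control group.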

[1] = dose: 50.0 mg/kg/injection, schedule: Q01DX009 (ip), vehicle: Klucel (hydroxypropylcellulose) (HPC)
[2] = dose: 100.0 mg/kg/injection, schedule: Q01DX009 (ip), vehicle: Klucel (hydroxypropylcellulose) (HPC)
[3] = dose: 200.0 mg/kg/injection, schedule: Q01DX009 (ip), vehicle: Klucel (hydroxypropylcellulose) (HPC)
[4] = dose: 50.0 mg/kg/injection, schedule: Q01DX005 (ip), vehicle: saline
[5] = dose: 100.0 mg/kg/injection, schedule: Q01DX005 (ip), vehicle: saline
[6] = dose: 200.0 mg/kg/injection, schedule: Q01DX005 (ip), vehicle: saline
[7] = dose: 25.0 mg/kg/injection, schedule: Q01DX009 (ip), vehicle: saline with Tween-80
[8] = dose: 50.0 mg/kg/injection, schedule: Q01DX009 (ip), vehicle: saline with Tween-80
[9] = dose: 100.0 mg/kg/injection, schedule: Q01DX009 (ip), vehicle: saline with Tween-80
[10] = dose: 200.0 mg/kg/injection, schedule: Q01DX009 (ip), vehicle: saline with Tween-80
[11] = dose: 25.0 mg/kg/injection, schedule: Q04DX003 (ip), vehicle: water
[12] = dose: 50.0 mg/kg/injection, schedule: Q04DX003 (ip), vehicle: water

## COC(=O)C1C(=O)COc2ccccc21 (configuration not stated)
dose: 100.0 mg/kg/injection, schedule: Q04DX003 (ip), vehicle: saline
  T/C: 105 % of control
dose: 200.0 mg/kg/injection, schedule: Q04DX003 (ip), vehicle: saline
  T/C: 106 % of control
dose: 400.0 mg/kg/injection, schedule: Q04DX003 (ip), vehicle: saline
  T/C: 106 % of control

## c1ccc(-c2nc[nH]c2-c2ccccc2)cc1
[1]
  T/C: 96 % of control
[2]
  T/C: 97 % of control
dose: 100.0 mg/kg/injection, schedule: Q01DX009 (ip), vehicle: suspension in saline
  T/C: 101 % of control
[3]
  T/C: 98 % of control
dose: 200.0 mg/kg/injection, schedule: Q01DX009 (ip), vehicle: suspension in saline
  T/C: 96 % of control
dose: 400.0 mg/kg/injection, schedule: Q01DX009 (ip), vehicle: Klucel (hydroxypropylcellulose) (HPC)
  T/C: 97 % of control

## CN=C(N)NN=C(c1ccc(I)cc1)c1ccc(I)cc1
dose: 25.0 mg/kg/injection, schedule: Q04DX002 (ip), vehicle: saline with Tween-80
  T/C: 104 % of control
dose: 50.0 mg/kg/injection, schedule: Q04DX002 (ip), vehicle: saline with Tween-80
  T/C: 106 % of control
dose: 100.0 mg/kg/injection, schedule: Q04DX002 (ip), vehicle: saline with Tween-80
  T/C: 104 % of control

## CN1CC[CH2][Sn]([Cl])([Cl])[CH2]CC1
dose: 3.75 mg/kg/injection, schedule: Q01DX005 (ip), vehicle: saline with Tween-80
  T/C: 114 % of control
dose: 7.5 mg/kg/injection, schedule: Q01DX005 (ip), vehicle: saline with Tween-80
  T/C: 105 % of control

## NCC(N)CCC(=O)O (configuration not stated)
[4]
  T/C: 99 % of control
[5]
  T/C: 105 % of control
[6]
  T/C: 105 % of control

## CC(=O)c1cc(CN(C)C)c(O)c(CN(C)C)c1
[4]
  T/C: 101 % of control
[5]
  T/C: 99 % of control
[6]
  T/C: 99 % of control

## CC(NC(=O)OCc1ccccc1)C(=O)NC1C(O)OC(CO)C(O)C1O (configuration not stated)
dose: 12.5 mg/kg/injection, schedule: Q01DX009 (ip), vehicle: other
  T/C: 96 % of control
dose: 25.0 mg/kg/injection, schedule: Q01DX009 (ip), vehicle: other
  T/C: 100 % of control
dose: 25.0 mg/kg/injection, schedule: Q01DX009 (ip), vehicle: water
  T/C: 104 % of control
dose: 50.0 mg/kg/injection, schedule: Q01DX009 (ip), vehicle: water
  T/C: 93 % of control
dose: 100.0 mg/kg/injection, schedule: Q01DX009 (ip), vehicle: water
  T/C: 106 % of control
dose: 200.0 mg/kg/injection, schedule: Q01DX009 (ip), vehicle: water
  T/C: 102 % of control

## Cc1[nH]c(=O)[nH]c(=O)c1/C=C/C(=O)NC(CO)CS(=O)CS(C)=O (configuration not stated)
dose: 1.2 mg/kg/injection, schedule: Q01DX009 (ip), vehicle: water
  T/C: 119 % of control
dose: 2.2 mg/kg/injection, schedule: Q01DX009 (ip), vehicle: water
  T/C: 122 % of control
dose: 2.4 mg/kg/injection, schedule: Q01DX009 (ip), vehicle: water
  T/C: 119 % of control

## O=C1NC(=O)NC(C(=O)O)N1
dose: 12.5 mg/kg/injection, schedule: Q01DX009 (ip), vehicle: Klucel (hydroxypropylcellulose) (HPC)
  T/C: 105 % of control
dose: 25.0 mg/kg/injection, schedule: Q01DX009 (ip), vehicle: Klucel (hydroxypropylcellulose) (HPC)
  T/C: 105 % of control
[7]
  T/C: 94 % of control
dose: 50.0 mg/kg/injection, schedule: Q01DX009 (ip), vehicle: DMSO
  T/C: 103 % of control
[1]
  T/C: 104 % of control
[8]
  T/C: 100 % of control
dose: 100.0 mg/kg/injection, schedule: Q01DX009 (ip), vehicle: DMSO
  T/C: 100 % of control
[2]
  T/C: 104 % of control
[9]
  T/C: 100 % of control
dose: 200.0 mg/kg/injection, schedule: Q01DX009 (ip), vehicle: DMSO
  T/C: 97 % of control
[3]
  T/C: 115 % of control
[10]
  T/C: 95 % of control

## Cc1nc2c(ccc3cc4ccccc4cc32)cc1N(CCO)CCO
dose: 50.0 mg/kg/injection, schedule: Q01DX009 (ip), vehicle: saline + Tween-80 + alcohol
  T/C: 110 % of control
dose: 100.0 mg/kg/injection, schedule: Q01DX009 (ip), vehicle: saline + Tween-80 + alcohol
  T/C: 108 % of control
dose: 200.0 mg/kg/injection, schedule: Q01DX009 (ip), vehicle: saline + Tween-80 + alcohol
  T/C: 99 % of control

## CCCCCCCCSC1=C(Cl)C(=O)C(OC)=C(OC)C1=O
dose: 1.5 mg/kg/injection, schedule: Q04DX002 (ip), vehicle: saline with Tween-80
  T/C: 101 % of control
dose: 3.0 mg/kg/injection, schedule: Q04DX002 (ip), vehicle: saline with Tween-80
  T/C: 99 % of control
dose: 6.0 mg/kg/injection, schedule: Q04DX002 (ip), vehicle: saline with Tween-80
  T/C: 99 % of control
dose: 6.25 mg/kg/injection, schedule: Q01DX009 (ip), vehicle: saline with Tween-80
  T/C: 101 % of control
dose: 12.0 mg/kg/injection, schedule: Q04DX002 (ip), vehicle: saline with Tween-80
  T/C: 108 % of control
dose: 12.5 mg/kg/injection, schedule: Q01DX009 (ip), vehicle: saline with Tween-80
  T/C: 105 % of control
dose: 24.0 mg/kg/injection, schedule: Q04DX002 (ip), vehicle: saline with Tween-80
  T/C: 108 % of control
[7]
  T/C: 111 % of control
dose: 48.0 mg/kg/injection, schedule: Q04DX002 (ip), vehicle: saline with Tween-80
  T/C: 107 % of control

## O=C1C(Cl)=C(NC2C(O)OC(CO)C(O)C2O)C(=O)C(Cl)=C1NC1C(O)OC(CO)C(O)C1O (configuration not stated)
dose: 50.0 mg/kg/injection, schedule: Q01DX005 (ip), vehicle: saline with Tween-80
  T/C: 96 % of control
dose: 100.0 mg/kg/injection, schedule: Q01DX005 (ip), vehicle: saline with Tween-80
  T/C: 90 % of control
dose: 200.0 mg/kg/injection, schedule: Q01DX005 (ip), vehicle: saline with Tween-80
  T/C: 97 % of control

## CC(=O)c1cccc(NC(=O)C2C(=O)C(=O)N(c3cccc(C(C)=O)c3)C2=O)c1 (configuration not stated)
[1]
  T/C: 91 % of control
[2]
  T/C: 104 % of control
[3]
  T/C: 101 % of control

## CCOc1c(N=Nc2ccccc2C)c(C)nn1C(=S)S
dose: 60.0 mg/kg/injection, schedule: Q01DX005 (ip), vehicle: Klucel (hydroxypropylcellulose) (HPC)
  T/C: 97 % of control
dose: 120.0 mg/kg/injection, schedule: Q01DX005 (ip), vehicle: Klucel (hydroxypropylcellulose) (HPC)
  T/C: 95 % of control
dose: 240.0 mg/kg/injection, schedule: Q01DX005 (ip), vehicle: Klucel (hydroxypropylcellulose) (HPC)
  T/C: 97 % of control

## O=C(Nc1ccc(Cl)cc1)Nc1nnc2nc(C3(c4nc5nnc(NC(=O)Nc6ccc(Cl)cc6)n5[nH]c4=O)Cc4ccccc4C3=O)c(=O)[nH]n12
dose: 60.0 mg/kg/injection, schedule: Q01DX005 (ip), vehicle: saline with Tween-80
  T/C: 103 % of control
dose: 120.0 mg/kg/injection, schedule: Q01DX005 (ip), vehicle: saline with Tween-80
  T/C: 107 % of control
dose: 240.0 mg/kg/injection, schedule: Q01DX005 (ip), vehicle: saline with Tween-80
  T/C: 98 % of control

## O.O.O=C(O)C(=O)O.O=C(O)C(=O)O.[Rh]
[11]
  T/C: 94 % of control
[12]
  T/C: 95 % of control
dose: 100.0 mg/kg/injection, schedule: Q04DX003 (ip), vehicle: water
  T/C: 100 % of control
dose: 200.0 mg/kg/injection, schedule: Q04DX003 (ip), vehicle: water
  T/C: 100 % of control

## O=c1c2ccccc2nc(-c2ccccc2Cl)n1/N=C/c1cccc([N+](=O)[O-])c1
dose: 0.78 mg/kg/injection, schedule: Q01DX009 (ip), vehicle: saline with Tween-80
  T/C: 99 % of control
dose: 1.56 mg/kg/injection, schedule: Q01DX009 (ip), vehicle: saline with Tween-80
  T/C: 92 % of control
dose: 3.12 mg/kg/injection, schedule: Q01DX009 (ip), vehicle: saline with Tween-80
  T/C: 91 % of control

## CC1(C)CC(OP(=O)(OCCN2CC2)OCCN2CC2)CC(C)(C)N1O
[8]
  T/C: 107 % of control
[9]
  T/C: 100 % of control
[10]
  T/C: 96 % of control

## O=NN(CCCl)C(=O)NC1CCN(Cc2ccccc2)CC1
dose: 12.5 mg/kg/injection, schedule: Q04DX003 (ip), vehicle: other
  T/C: 154 % of control
dose: 12.5 mg/kg/injection, schedule: Q04DX003 (ip), vehicle: water
  T/C: 184 % of control
dose: 25.0 mg/kg/injection, schedule: Q04DX003 (ip), vehicle: other
  T/C: 183 % of control
[11]
  T/C: 225 % of control
dose: 50.0 mg/kg/injection, schedule: Q04DX003 (ip), vehicle: other
  T/C: 287 % of control
[12]
  T/C: 281 % of control
dose: 100.0 mg/kg/injection, schedule: Q04DX003 (ip), vehicle: other
  T/C: 361 % of control
